For data set [1], the system named is cotton boll weevils, Anthonomous grandis Boheman. The experiment in a line: Cotton Boll Weevil Test. Format: in vivo. Conditions: for % Control Cotton Boll Weevil: 1000 PPM, cotton seedlings, five days, Abbott-corrected, 7200 min; for Boll Weevil % Feeding Reduced on Cotton: 1000 ppm, visual comparison of feeding damage. As to the method: Formulations were prepared at 1000 ppm as in B, the Aphid Contact Test, above. Cotton seedlings 12 to 14 days old grown in 12 oz cups were used. Two pots were treated with each formulation by spraying with a spray atomizer while rotating the pots on a turntable. Five adult cotton boll weevils, Anthonomous grandis Boheman, were placed in each pot following treatment and were caged by covering the pots with an inverted 16 oz styrofoam cup with small perforations punched in the bottom. The surviving weevils were counted after five days in the greenhouse to determine the percent control, corrected for any natural mortality in the control plants by Abbott's formula. The percent reduction in feeding was estimated by visual comparison of the feeding damage to the treated plants with the control (untreated) plants.
(§1) F. Abbott's Formula: [formula]

In data set [2] the test system is tobacco bud worm, Heliothis virescens (Fabricius). The experiment in a line: Tobacco Bud Worm Diet Test. Format: in vivo. Conditions: 1000 PPM, one week, Abbott-adjusted, 10080 min. As to the method:
Test formulations were prepared at 1000 ppm as in B, the Aphid Contact Test, above. Two-tenths ml of the diluted formulations was pipetted onto the surface of 5 grams of a synthetic diet mixture held in partially filled cells of a plastic jelly tray. Five cells were treated with each chemical dilution. The diet mixture was a modified Vanderzant diet consisting of wheat germ, soy flour, agar, sugar, salts, vitamins, preservatives and water. The jelly trays had fifty cavities per sheet, each cavity being approximately 2.5 × 4.0 × 1.5 cm.
Following treatment, a third or early fourth instar larva of the tobacco bud worm, Heliothis virescens (Fabricius), was placed in each cell. The trays were then covered with a plastic film plus a sheet of rigid plastic and were held in an incubator at 80° F.
At the end of one week, the trays were examined and the percent control was determined, adjusted for any natural mortality in the controls by Abbott's formula. The trays were held an additional week and any abnormalities in the development of the survivors was noted.
as §1

Data set [3] deals with yellow fever mosquito, Aedes aegypti (Linnaeus). Format: in vivo. Conditions: 1 PPM, 72 hours. As to the method: Formulations were prepared by dissolving 30 mg of organotin compound of the invention in 10 ml of acetone. This solution was then diluted to 1 ppm with water. Two 25-ml aliquots were placed in test tubes to which were added 10 to 25 fourth instar larvae of the yellow fever mosquito, Aedes aegypti (Linnaeus). The tubes were held in darkness for 72 hours. At the end of this period the percent control was determined.

For data set [4], the system named is adult mites, urticae Koch. The experiment in a line: Mite One-Day Residual Test (Example 8). Conditions: 500 PPM, cotton, six days after infestation; 8640 min. Format: in vivo. As to the method:
Test compounds were prepared as in B, the Aphid Contact Test, above but were further diluted to 500 ppm with water.
Cotton, in the second primary leaf stage grown in twelve ounce cups under greenhouse conditions at 70°-75° F., was used in the test.
one plant (two primary leaves) in one pot was used for each replicate; two replicates were used for each concentration of organotin compound tested.
The plants were sprayed with the dispersions using a small spray atomizer to throughly drench the foliage.
One day following treatment, a circle of tree tanglefoot was placed on the upper surface of the treated leaves and adult mites, urticae Koch, were transferred into this confinement.
Six days following infestation with mites, the plants were examined for adult live mites remaining on the leaves. On an estimation basis in comparison with the number of living mites on the control plants, the percent control was determined.

The subject of data set [5] is corn leaf aphids Rhopalosiphum maidis (Fitch). The experiment in a line: Aphid Contact Test. To be noted: 1000 PPM spray, barley, 5 days. Format: in vivo. As to the method: Test formulations were prepared for spraying at 1000 ppm (parts per million) concentration by dissolving them in a small amount of acetone and adding a suitable wetting agent. Typically, […] of organotin compound was dissolved (or suspended) in 10 ml of acetone, 2 drops of Triton-X100 wetting agent (octylphenoxy polyethoxy ethanol with 9-10 mole percent of polyethylene oxide) were added and this was suspended in 300 ml of water make a 6000 ppm suspension. An aliquot was then further diluted with distilled water to 1000 ppm concentration of organotin compound.
Eight to ten day old barley seedlings, grown ten plants each in a 12 oz. cup, were infested with corn leaf aphids Rhopalosiphum maidis (Fitch), two days prior to treatment. Two pots were treated with each formulation by spraying with a spray atomizer while the plants were rotating on a turntable. Following treatment, the plants were held for 5 days in the greenhouse. At the end of this period, the percent control of the aphids was estimated based on the reduction of the population density as compared to untreated plants used as controls.

Data set [6] in a line: Hydrolysis in humid air (81% humidity chamber). Format: physicochemical. From the text: A. The compound subjected to humid air was a typical Peterson compound, phenylsulfonylmethyltrimethylstannane, [formula] A 5 gal. jar was set on its side on a wooden support and contained a wire mesh screen to support samples in test over a mixture of 152 g of (NH4)2 SO4 in 168 g of H2 O. An excess of (NH4)2 SO4 in contact with a saturated aqueous solution of (NH4)2 SO4 gives 81% humidity in a closed space.^1 The following samples of this Peterson compound were weighted into 40 mm O.D. petri dishes (minus cover) of 8 mm depth and the dishes placed into the humidity chamber, and the chamber was then closed: No. 15 dish 0.2186 g; No. 34 dish 0.2006 g. Before the samples were removed from the balance, a solid crust began forming on the surface of the liquid and, inside of ten minutes, covered all of the liquid surface. An odor of a volatile trimethyltin compound was noted. When the samples were placed in the humidity chamber, the samples coated almost all of the surface area inside the dishes. The 5 gal. jar was set on the bench under normal laboratory lighting. The initial temperature inside the chamber was 24.5° C. Over 4 days, the temperature ranged from the initial temperature as a high to a low temperature of 18° C. The No. 15 sample was removed after 4 days. Under the surface crust, there was an oily solid. The sample was scraped with a spatula into a 2 dram sample vial. The oily solid remaining was washed into the vial with chloroform (about 0.5 to 1 ml). The chloroform was removed under a stream of nitrogen. The No. 34 sample was removed from the chamber after 7 days. The sample was completely solid and was scraped into a vial.
at 307 Hz and a broadened singlet flanked by satellites at 36.5 Hz for (CH3)3 Sn and a broadened singlet at 191 Hz for the OH.
B. A corresponding compound, closely related to the compounds of this invention, phenylsulfonylethyltrimethylstannane, [formula] was subjected to similar humidity conditions in the same equipment. […]

For data set [7] the following is noted: cited from earlier work.
Data set [8] deals with tobacco bud worm, Heliothis virescens (Fabricius). The experiment in a line: 3-day tobacco bud worm test on cotton, comparative (Table VII). Format: in vivo. To be noted: 6 days after spray. As to the method: Tesst formulations were prepared by dissolving 50 mg of organotin compound of the invention in one ml of acetone, adding one drop of Emulfor 719, a commercial surface-active dispersing agent (polyoxyethylated vegetable oil) and suspending in 50 m1 of water for a concentration of 1000 ppm (parts per million). Aliquots of the solution were further diluted with distilled water to concentrations of 100, 20 and 5 ppm.
Cotton seedlings two weeks old were used. These were grown in 12 ounce cups with two plants in each cup. The diluted formulations were applied to the seedling plants with a spray atomizer and allowed to dry. Three cups were treated with each diluted formulation. A third instar larvae of the tobacco bud worm, Heliothis virescens (Fabricius). was placed in each cup and confined by inverting a perforated 16 oz. styrofoam cup over the top. Percent control of the worms and amount of feeding damage to the plants was determined after two weeks in the greenhouse.
(§2) The 3-day tobacco bud worm test on cotton differed as follows from that set forth in Example 10. The plants used were 3 weeks old, and were covered with cheesecloth during the test. Six replicates were used for each test compound, with 1 worm per plant. The plants were infested with larva 3 days after the spray application and the recorded observations were made 6 days after the spray application.

Data set [9] has as its system adult mites, Tetranychus urticae koch. The experiment in a line: Mite one-day residual test, comparative (Table VII). To be noted: 3 days after loading mites, 85° F. Format: in vivo. As to the method:
Cotton in the second primary leaf stage, grown in twelve ounce cups under greenhouse conditions at 70°-75° F. was used in this test. One plant (two primary leaves) in one pot was used for each replicate and two replicates were used for each concentration of tin compound tested. Test formulations were prepared by dissolving 50 mg of tin compound in one ml of acetone, adding one drop of Emulfor 719, a commercial surface-activedispersing agent (polyoxyethylated vegetable oil) and suspended in 50 ml of water for concentration of 1000 ppm (parts per million). Aliquots of this solution were further diluted with distilled water to concentrations of 100, 20 and 5 ppm. The plants were sprayed with the formulations using a small spray atomizer to thoroughly drench the foliage. One day following treatment, a circle of tree tanglefoot was placed on the upper surfaces of the treated leaves and adult mites, Tetranychus urticae koch, were transferred into this confinement. Counts of these mites were made immediately following transfer and again six days later.
The mite one-day residual test differed as follows from that set forth in Example 9. The plants were held in a growth chamber maintained at 85° F., and were exposed to high intensity fluorescent lights for 14 hour days. The recorded observations were made 3 days after loading the mites.
as §2

Data on 8 compounds can be found in patent US3976672A, “(Hydrocarbylphenylsulfonyl)alkyltrimethylstannanes” (priority 1975, dated 1976).

For “2-(p-dodecylphenylsulfonyl)ethyltrimethylstannane [Compound 11]”, in [1], the “% Control Cotton Boll Weevil” value is reported as 100% and the “Boll Weevil % Feeding Reduced on Cotton” value was 50%. Further, in data set [2], the “% Control Tobacco Bud Worm” value worked out at 100%. Moreover, in data set [3], the “% Control Mosquito Larvae” value was 100%. For the same compound, the “% Control Mite One-Day Residual” value in [4] was found to be 100%. Moreover, the “% Control Aphids” value in data set [5] worked out at 90%.
With 2-Thioacetoxyethyltri-n-butyltin, in data set [1], the “% Control Cotton Boll Weevil” value is 40% and the “Boll Weevil % Feeding Reduced on Cotton” value came to 90%. Moreover, the “% Control Tobacco Bud Worm” value in data set [2] is listed as 20%. Besides, in data set [3], the “% Control Mosquito Larvae” value amounted to 55%. For the same compound, in data set [4], the “% Control Mite One-Day Residual” value is reported as 80%. Further, the “% Control Aphids” value in [5] came to 95%.
Take `C[CH](S(=O)(=O)c1ccc(C(C)(C)C)cc1)[Sn]([CH3])([CH3])[CH3]` (centres unmarked) [1-[p-t-butylphenylsulfonyl]ethyltrimethylstannane]: the hydrolysis deficiencies entry in data set [6] (comparison with the Peterson compound) is given as “suffers from the same hydrolysis deficiencies as does the Peterson compound”.
Take `CCC[CH2][Sn]([CH2]CCC)([CH2]CCC)[CH2]S(=O)(=O)c1ccccc1` [[(Phenylsulfonyl)methyl]tributyltin]: in data set [7] (room temperature), the “reactivity toward carbon dioxide and oxygen” value is “unreactive toward carbon dioxide and oxygen at room temperature”. Moreover, in [7] (within four days, 5760 min), the “decomposition to phenyl methyl sulfone and tributyltin oxide on exposure of a thin layer to air” value was “ca. 50%”.
On to `[CH3][Sn]([CH3])([CH3])[CH2]CS(=O)(=O)c1ccccc1` [trimethylphenylsulfonylethylstannane, phenylsulfonylethyltrimethylstannane], for which, in data set [6] (81% humidity, 27° C./room temperature, 4 days and 2 weeks), the “hydrolysis in humid air (infrared, NMR)” value is recorded as “not subject to hydrolysis under the stated conditions”.
For the compound `[CH3][Sn]([CH3])([CH3])[CH2]S(=O)(=O)c1ccccc1` [trimethylphenylsulfonylmethylstannane, phenylsulfonylmethyltrimethylstannane], the “hydrolysis in humid air (NMR)” value in [6] (81% humidity, 18-24.5° C., 4 days and 7 days) is “no unreacted starting Peterson compound”.
On to `[CH3][Sn]([CH3])([CH3])[OH]` [trimethyltin hydroxide], for which the “Tobacco Bud Worm % Control” value came to 16% in data set [8] (0.15 millimoles/liter), 16% in [8] (0.3 millimoles/liter) and 66% in data set [8] (0.6 millimoles/liter). Moreover, the “Tobacco Bud Worm % Feeding Reduced” value was 50% in data set [8] (0.15 millimoles/liter), 69% in [8] (0.3 millimoles/liter) and 81% in data set [8] (0.6 millimoles/liter). Further, the “Mite One-Day Residual % Control” value in data set [9] (0.15 millimoles/liter) worked out at 7%; in data set [9] (0.3 millimoles/liter), 34%; in data set [9] (0.6 millimoles/liter), 9%.
In the case of Trimethyltin p-toluenesulfinate, in data set [1], the “% Control Cotton Boll Weevil” value stood at 100% and the “Boll Weevil % Feeding Reduced on Cotton” value was 100%. In addition, in data set [2], the “% Control Tobacco Bud Worm” value was found to be 100%. Moreover, the “% Control Mosquito Larvae” value in data set [3] is reported as 0%. The “% Control Mite One-Day Residual” value in [4] is given as 100%. The “% Control Aphids” value in data set [5] is listed as 98%.
